Results on seven compounds are retold here after patent publication US6900189B2, “Analgesic and glucosamine compositions” (priority 2000, dated 2005).

Assay [1] concerns acetylcholine induced abdominal constriction. As to the kind of experiment: prevention of acetylcholine induced abdominal constriction in mice. The class given is in vivo.
Assay [2] shares this test system. The assay is described as above. It is filed as in vivo. The note with it: for ED50: Mus musculus, 0.5 h, analgesic alone, oral, mice, acetylcholine challenge 30 minutes after treatment. Here is the method:
Mature, male Swiss-Webster mice (weighing 25-30 g) were utilized in determining the analgesic effects of the compositions. The mice were all dosed orally with glucosamine sulfate, which was completely dissolved in distilled water, and a selected analgesic (ibuprofen, diclofenac, tramadol HCl, or acetaminophen), which was completely dissolved in distilled water or in distilled water containing 2% by volume of TWEEN®-80 containing 100% polysorbate 80. Mice were dosed at 10 mL/kg.
The procedure used in detecting and comparing the analgesic activity of different classes of analgesic drugs was the prevention of acetylcholine induced abdominal constriction in mice.
Mice were treated with various doses of glucosamine sulfate alone, analgesic alone, combined doses of glucosamine sulfate and analgesic, or vehicle such as distilled water containing 2% by volume of TWEEN®-80. Intraperitoneal injection of a challenge dose of acetylcholine bromide was administered 30 minutes after treatment. […] For scoring purposes an “abdominal constriction” was defined as a contraction of the abdominal musculature accompanied by arching of the back and extension of the limbs. […] Each mouse was tested only once.
Doses of the combinations were coded to permit complete randomization of the tests.

As a reminder, the ED50 is the midpoint of the dose-response relation.

Where a name gives a salt, the structure may show the parent alone. Read-outs that look alike come from different tables or passages of the source.

Take `CC(C)Cc1ccc([C@H](C)C(=O)O)cc1` [S(+) Ibuprofen]: the No. protected/no. tested in assay [1] (Group A: S(+) ibuprofen 15 mg/kg alone) is 2/10; in assay [1] (Group B: S(+) ibuprofen 30 mg/kg alone) it was 4/10; in assay [1] (Group C: S(+) ibuprofen 60 mg/kg alone), 6/10; in assay [1] (Group D: S(+) ibuprofen 120 mg/kg alone), 7/10.

As to `CC(=O)Oc1ccccc1C(=O)O` [Aspirin], the ED50 in assay [2] stood at 109 mg/kg. For the same compound, the No. protected/no. tested was 1/10 in assay [1] (ASA 50 mg/kg alone), 4/10 in assay [1] (ASA 100 mg/kg alone), 8/10 in assay [1] (ASA 150 mg/kg alone) and 7/10 in assay [1] (ASA 200 mg/kg alone).

`CC(C)Cc1ccc(C(C)C(=O)O)cc1` (centres unmarked) [Ibuprofen, 2-(p-isobutylphenyl)propionic acid]: the ED50 in assay [2] stood at 26.1 ± 3.41 mg/kg. The No. protected/no. tested is reported as 1/10 in assay [2] (ibuprofen 10 mg/kg alone); 1/10 in assay [2] (ibuprofen 13.91 mg/kg alone); 4/10 in assay [2] (ibuprofen 20.0 mg/kg alone); 8/10 in assay [2] (ibuprofen 41.74 mg/kg alone); 9/10 in assay [2] (ibuprofen 100 mg/kg alone); 6/10 in assay [1] (ibuprofen 27.8 mg/kg alone). Besides, the No. protected/no. tested in assay [1] (ibuprofen 30.0 mg/kg alone) was 6/10.

As for `O=C(O)Cc1ccccc1Nc1c(Cl)cccc1Cl` [Diclofenac], the 50% effective dose (ED50) in assay [2] came out at 1.14 mg/kg.

Turning to `CC(=O)Nc1ccc(O)cc1` [Acetaminophen], the No. protected/no. tested is reported as 1/10 in assay [2] (acetaminophen 62.5 mg/kg alone), 4/10 in assay [2] (acetaminophen 125 mg/kg alone) and 8/10 in assay [2] (acetaminophen 250 mg/kg alone).

As to `COc1cccc(C2(O)CCCCC2CN(C)C)c1` (centres unmarked) [Tramadol HCl], the ED50 in assay [1] (Mus musculus, 0.5 h, read-out: ED50 (alone)) worked out at 8.05 mg/kg.

In the case of `COc1ccc2c(c1)c(CC(=O)O)c(C)n2C(=O)c1ccc(Cl)cc1` [Indomethacin], in assay [2], the ED50 amounted to 3.66 mg/kg. Besides, the No. protected/no. tested is 4/10 in assay [1] (indomethacin 2.5 mg/kg alone), 6/10 in assay [1] (indomethacin 5.0 mg/kg alone) and 7/10 in assay [1] (indomethacin 10.0 mg/kg alone).
